In PubChem BioAssay (NCI) one finds TGI data, which are given here for 14 compounds.

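Growth conditions: 96-well plates. Treatment: test compound, 48 hours, 5 concentrations. Analysis: linear interpolation between bracketing concentrations; unreached endpoints set to highest concentration. TGI denotes the concentration required for complete inhibition of growth.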

Holding throughout (test): growth of human tumour cells (NCI), 48 h
Assay [1] concerns KM12 colon.
In assay [2] the test system is SK-MEL-2 melanoma.
The test system of assay [3] is UO-31 renal.
For assay [4], the system named is NCI-H460 lung.
The test system of assay [5] is SN12C renal.
Assay [6] concerns SF-268 CNS.
Assay [7] has as its system SK-OV-3 ovarian.
The subject of assay [8] is OVCAR-8 ovarian.
For assay [9], the system named is NCI-H23 lung.
The subject of assay [10] is MDA-MB-231 breast.

As for `CC1(C)N=C(N)N=C(N)N1c1ccc(OCCCOc2ccccc2)c(Cl)c1`, the TGI was 12.3 µM in assay [1]; 16.9 µM in assay [2]; more than 23.8 µM in assay [3]; 12.4 µM in assay [4]; 14.9 µM in assay [5]; 13.5 µM in [6]. In addition, the TGI in assay [7] was 35.1 µM; in assay [8], 14.5 µM; in assay [9], 10.7 µM.

On to `Cc1cccc(C(O)c2cccnc2)c1O` (stereo not given), for which the TGI in assay [1], in [3], in assay [4], in assay [5], in assay [6] and in assay [10] was more than 100 µM in each case. Further, the TGI in assay [8] and in assay [9] was more than 100 µM throughout.

With `c1ccc(-c2[nH]c(-c3ccccc3)c(-c3cnccn3)c2-c2cnccn2)cc1`, the TGI in [1], in [2], in assay [3], in [4], in assay [5] and in [6] was more than 100 µM in each case. Further, the TGI in assay [7], in [8] and in [9] was more than 100 µM throughout.

Consider `COc1ccc(NS(=O)c2cccc(C)c2)cc1` (stereo not given), for which the TGI in assay [1], in assay [3], in assay [4], in assay [5], in assay [6] and in assay [10] was more than 100 µM each time. Further, the TGI in [8] and in assay [9] was more than 100 µM each time.

For the compound `CCOC(=O)c1cn(C)nc1N/C(C)=C\C(=O)c1ccccc1`, the TGI in assay [1], in assay [3], in [4], in [5], in assay [6] and in [10] was more than 100 µM each time. In addition, the TGI in [7], in assay [8] and in assay [9] was more than 100 µM throughout.

Take `C=C1C(=O)O[C@H]2C/C(C=O)=C\[C@H]3O[C@H]3/C(COC(=O)C(C)C)=C/CC12` (stereo not given in full): the TGI in assay [1] was determined as 22.7 µM; in assay [3], 18 µM; in assay [4], 26.8 µM; in assay [5], 7.11 µM; in [10], 17.3 µM; in assay [8] it was 13.3 µM. The same compound had a TGI in assay [9] of 20.3 µM.

As for `O=C1OC2C=CC1C1(CCOC1=O)C2` (stereo not given), the TGI in [1], in assay [2], in assay [3], in assay [4], in assay [5] and in assay [6] was more than 100 µM throughout. The TGI in assay [8] and in assay [9] was more than 100 µM each time.

As to `CC(=O)O[C@H]1C(=O)[C@@]2(C)C(C(OC(=O)c3ccccc3)[C@]3(O)CC(OC(=O)C(O)C(NC(=O)c4ccccc4)c4ccc(C)cc4)C(C)=C1C3(C)C)[C@]1(OC(C)=O)CO[C@@H]1C[C@@H]2O` (stereo not given in full), the TGI is 9.9 µM in assay [1]; 0.121 µM in [2]; 11.5 µM in assay [3]; more than 25 µM in assay [4]; more than 25 µM in assay [5]; more than 25 µM in assay [6]. Further, the results for the TGI in [7], in assay [8] and in assay [9] were 0.0962 µM, 1.01 µM and 21.8 µM, respectively.

As for `S=C(Nc1ccc2c(c1)Cc1ccccc1-2)Nc1ccc2c(c1)Cc1ccccc1-2`, the TGI in [1], in [3], in assay [4], in assay [5], in assay [6] and in assay [10] was more than 100 µM in each case. For the same compound, the TGI in assay [7], in assay [8] and in [9] was more than 100 µM in each case.

As for `Cc1cc(C)c2c(c1)CC1(Cc3c(C)cc(C)cc3C1=O)C2=O` (stereo not given), the TGI in assay [1], in assay [2], in assay [3], in assay [4], in assay [5] and in [6] was more than 100 µM each time. Besides, the TGI in assay [10] and in [8] was more than 100 µM in each case.

Regarding `C/C(=C\CNc1nc(Cl)nc2nc[nH]c12)CO`, the TGI in [1], in assay [3], in assay [4], in [5], in [6] and in [10] was more than 100 µM each time. Further, the TGI in assay [7], in assay [8] and in [9] was more than 100 µM each time.

With `CC(=O)Nc1ccc(/C=C(\NC(=O)c2ccccc2)C(=O)NNS(=O)(=O)c2ccc(C)cc2)cc1`, the TGI in [1], in assay [2], in assay [3], in assay [4], in assay [5] and in assay [6] was more than 100 µM in each case. Besides, the TGI in assay [7], in assay [8] and in assay [9] was more than 100 µM in each case.

As for `COc1ccc(N2C(=O)/C(=C/c3ccc(N(CCC#N)CCC#N)cc3)N=C2c2ccccc2)c(OC)c1`, the TGI in [1], in assay [3], in assay [4], in assay [5], in assay [6] and in [10] was more than 100 µM throughout. Further, the TGI in [7], in assay [8] and in assay [9] was more than 100 µM in each case.

In the case of `COc1cccc2c1[C@]1(O)C(O)CCCC21` (stereo not given in full), the TGI in assay [1], in assay [2], in [3], in assay [4], in [5] and in [6] was more than 100 µM each time. The TGI in [7], in assay [8] and in assay [9] was more than 100 µM in each case.
